Remaining binding data for three compounds are collected here from patent US11208412B2 (DAEGU-GYEONGBUK MEDICAL INNOVATION FOUNDATION, priority 2017, dated 2021).

Molecules are shown by their SMILES.

Experiment in all cases: Kinase selectivity, DiscoverX scanMAX Kinase assay panel (% control)
Type in all cases: binding

Assay [1] deals with T1, kinases of the scanMAX Kinase assay panel (Homo sapiens, UniProt O15146).
T1 construct: purchased DiscoverX Co. (contract measurement) scanMAX Kinase assay panel
T1 sequence (O15146 24-869): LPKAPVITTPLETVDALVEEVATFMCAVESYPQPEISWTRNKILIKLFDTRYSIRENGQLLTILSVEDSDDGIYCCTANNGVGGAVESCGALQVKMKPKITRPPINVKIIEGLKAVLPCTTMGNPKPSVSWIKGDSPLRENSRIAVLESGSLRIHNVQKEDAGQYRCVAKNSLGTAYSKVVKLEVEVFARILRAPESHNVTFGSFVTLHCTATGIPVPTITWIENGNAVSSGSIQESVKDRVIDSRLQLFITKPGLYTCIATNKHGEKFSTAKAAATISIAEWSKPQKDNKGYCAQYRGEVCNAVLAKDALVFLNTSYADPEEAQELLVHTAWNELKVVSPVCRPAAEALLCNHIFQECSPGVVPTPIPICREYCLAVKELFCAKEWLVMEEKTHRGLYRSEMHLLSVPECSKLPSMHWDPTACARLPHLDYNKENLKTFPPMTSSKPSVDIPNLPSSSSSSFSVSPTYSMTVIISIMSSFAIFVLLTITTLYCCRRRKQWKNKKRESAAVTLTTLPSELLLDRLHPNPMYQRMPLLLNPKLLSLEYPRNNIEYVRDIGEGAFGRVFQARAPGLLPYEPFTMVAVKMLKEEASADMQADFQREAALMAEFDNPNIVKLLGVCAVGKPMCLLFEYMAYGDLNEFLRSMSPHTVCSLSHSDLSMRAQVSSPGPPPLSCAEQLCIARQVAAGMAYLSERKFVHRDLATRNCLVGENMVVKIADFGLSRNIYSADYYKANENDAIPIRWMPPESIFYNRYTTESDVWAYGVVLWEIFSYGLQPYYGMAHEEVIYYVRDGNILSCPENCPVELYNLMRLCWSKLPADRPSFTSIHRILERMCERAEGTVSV
As to conditions: MUSK; 1 uM. The gist of the method: (§1)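 Percent of control computed as (compound − positive control)/(negative control − positive control) × 100, DMSO defining 100% and positive control 0%. Each panel kinase exposed to 1 uM compound; values under 35% taken to mean the compound acts on that kinase.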

Assay [2] addresses T2, kinases of the scanMAX Kinase assay panel (Homo sapiens, UniProt P00533, L858R).
T2 construct: purchased DiscoverX Co. (contract measurement) scanMAX Kinase assay panel
As to conditions: EGFR(L858R); 1 uM. The gist of the method:
as §1

Assay [3] concerns the target T3, kinases of the scanMAX Kinase assay panel (Homo sapiens, UniProt P08922).
T3 construct: purchased DiscoverX Co. (contract measurement) scanMAX Kinase assay panel
As to conditions: kinase ROS1; 1 uM in DMSO. The essentials: as §1

The target of assay [4] is T4, kinases of the scanMAX Kinase assay panel (Homo sapiens, UniProt P11362).
T4 construct: purchased DiscoverX Co. (contract measurement) scanMAX Kinase assay panel
As to conditions: FGFR1; 1 uM. The gist of the method: as §1

For assay [5], the target named is T5, kinases of the scanMAX Kinase assay panel (Homo sapiens, UniProt P24723).
T5 construct: purchased DiscoverX Co. (contract measurement) scanMAX Kinase assay panel
As to conditions: PRKCH; 1 uM. The gist of the method:
as §1

For assay [6], the target named is T6, kinases of the scanMAX Kinase assay panel (Homo sapiens, UniProt Q5VT25).
T6 construct: purchased DiscoverX Co. (contract measurement) scanMAX Kinase assay panel
As to conditions: MRCKA; 1 uM. The essentials: as §1

Assay [7] addresses T7, kinases of the scanMAX Kinase assay panel (Homo sapiens, UniProt Q6DT37).
T7 construct: purchased DiscoverX Co. (contract measurement) scanMAX Kinase assay panel
As to conditions: DMPK2; 1 uM. The gist of the method: as §1

For assay [8], the target named is T8, kinases of the scanMAX Kinase assay panel (Homo sapiens, UniProt Q86Z02).
T8 construct: purchased DiscoverX Co. (contract measurement) scanMAX Kinase assay panel
As to conditions: HIPK1; 1 uM. The gist of the method:
as §1

Assay [9] has as its target T9, kinases of the scanMAX Kinase assay panel (Homo sapiens, UniProt Q8IVW4).
T9 construct: purchased DiscoverX Co. (contract measurement) scanMAX Kinase assay panel
As to conditions: CDKL3; 1 uM. The essentials:
as §1

For assay [10], the target named is T10, kinases of the scanMAX Kinase assay panel (Homo sapiens, UniProt Q8IY84).
T10 construct: purchased DiscoverX Co. (contract measurement) scanMAX Kinase assay panel
As to conditions: NIM1; 1 uM. The essentials:
as §1

The target in assay [11] is T11, kinases of the scanMAX Kinase assay panel (Homo sapiens, UniProt Q9BQI3).
T11 construct: purchased DiscoverX Co. (contract measurement) scanMAX Kinase assay panel
As to conditions: EIF2AK1; 1 uM. The essentials:
as §1

The target of assay [12] is T12, kinases of the scanMAX Kinase assay panel (Homo sapiens, UniProt Q9UHD2).
T12 construct: purchased DiscoverX Co. (contract measurement) scanMAX Kinase assay panel
T12 sequence (Q9UHD2 1-729): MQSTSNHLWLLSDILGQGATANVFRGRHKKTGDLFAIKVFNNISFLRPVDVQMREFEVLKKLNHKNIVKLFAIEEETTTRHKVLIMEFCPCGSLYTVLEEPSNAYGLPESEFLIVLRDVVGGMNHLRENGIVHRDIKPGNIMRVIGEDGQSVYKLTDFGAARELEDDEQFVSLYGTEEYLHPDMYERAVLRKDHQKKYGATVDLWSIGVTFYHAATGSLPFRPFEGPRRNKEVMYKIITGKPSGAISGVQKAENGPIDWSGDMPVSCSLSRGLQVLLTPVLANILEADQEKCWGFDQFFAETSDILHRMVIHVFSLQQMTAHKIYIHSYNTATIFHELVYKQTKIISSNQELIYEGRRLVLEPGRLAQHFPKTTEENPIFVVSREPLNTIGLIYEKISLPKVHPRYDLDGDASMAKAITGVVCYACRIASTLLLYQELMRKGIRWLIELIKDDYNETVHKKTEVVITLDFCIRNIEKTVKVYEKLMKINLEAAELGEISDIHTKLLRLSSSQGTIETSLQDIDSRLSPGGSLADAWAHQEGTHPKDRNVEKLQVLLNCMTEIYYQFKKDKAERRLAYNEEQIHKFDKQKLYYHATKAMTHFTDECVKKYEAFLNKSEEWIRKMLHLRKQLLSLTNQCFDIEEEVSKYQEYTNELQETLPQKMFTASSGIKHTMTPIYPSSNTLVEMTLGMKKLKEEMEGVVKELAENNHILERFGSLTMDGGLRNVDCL
As to conditions: kinase TBK1; 1 uM in DMSO. The gist of the method:
as §1

The target of assay [13] is T13, kinases of the scanMAX Kinase assay panel (Homo sapiens, UniProt Q9Y2H1).
T13 construct: purchased DiscoverX Co. (contract measurement) scanMAX Kinase assay panel
As to conditions: NDR2; 1 uM. The gist of the method:
as §1

T2 sequence (P00533 25-1210 L858R): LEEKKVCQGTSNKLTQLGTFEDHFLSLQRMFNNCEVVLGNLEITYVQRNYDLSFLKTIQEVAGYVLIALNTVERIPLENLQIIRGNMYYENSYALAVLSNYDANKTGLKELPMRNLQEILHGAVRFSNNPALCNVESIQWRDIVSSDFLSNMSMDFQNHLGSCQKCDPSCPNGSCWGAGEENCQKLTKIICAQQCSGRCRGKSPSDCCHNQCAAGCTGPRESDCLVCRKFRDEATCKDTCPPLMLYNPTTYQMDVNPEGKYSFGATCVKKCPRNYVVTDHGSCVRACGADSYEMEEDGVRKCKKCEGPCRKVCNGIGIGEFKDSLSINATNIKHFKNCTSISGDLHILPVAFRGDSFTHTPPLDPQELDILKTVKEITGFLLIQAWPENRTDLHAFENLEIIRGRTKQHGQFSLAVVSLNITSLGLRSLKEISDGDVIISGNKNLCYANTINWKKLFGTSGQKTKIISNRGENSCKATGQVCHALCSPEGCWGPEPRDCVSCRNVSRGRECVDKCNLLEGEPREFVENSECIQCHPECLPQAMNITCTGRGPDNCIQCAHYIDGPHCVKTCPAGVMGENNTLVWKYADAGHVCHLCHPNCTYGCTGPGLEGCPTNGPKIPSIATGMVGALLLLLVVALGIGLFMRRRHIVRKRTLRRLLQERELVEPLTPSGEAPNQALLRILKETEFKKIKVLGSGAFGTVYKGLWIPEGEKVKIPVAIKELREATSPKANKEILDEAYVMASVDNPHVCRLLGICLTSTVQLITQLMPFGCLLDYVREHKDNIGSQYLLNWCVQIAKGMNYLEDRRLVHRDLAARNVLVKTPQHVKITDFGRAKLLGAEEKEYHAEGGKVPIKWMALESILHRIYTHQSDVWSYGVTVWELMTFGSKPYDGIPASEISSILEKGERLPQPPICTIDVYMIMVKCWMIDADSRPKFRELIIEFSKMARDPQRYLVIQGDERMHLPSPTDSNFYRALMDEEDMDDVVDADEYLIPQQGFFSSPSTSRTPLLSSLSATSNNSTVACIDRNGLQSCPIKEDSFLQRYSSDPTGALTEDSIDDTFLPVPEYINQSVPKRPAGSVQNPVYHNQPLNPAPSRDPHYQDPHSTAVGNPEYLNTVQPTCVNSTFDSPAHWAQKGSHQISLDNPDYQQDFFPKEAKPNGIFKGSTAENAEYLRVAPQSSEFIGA
T8 sequence (Q86Z02 whole entry): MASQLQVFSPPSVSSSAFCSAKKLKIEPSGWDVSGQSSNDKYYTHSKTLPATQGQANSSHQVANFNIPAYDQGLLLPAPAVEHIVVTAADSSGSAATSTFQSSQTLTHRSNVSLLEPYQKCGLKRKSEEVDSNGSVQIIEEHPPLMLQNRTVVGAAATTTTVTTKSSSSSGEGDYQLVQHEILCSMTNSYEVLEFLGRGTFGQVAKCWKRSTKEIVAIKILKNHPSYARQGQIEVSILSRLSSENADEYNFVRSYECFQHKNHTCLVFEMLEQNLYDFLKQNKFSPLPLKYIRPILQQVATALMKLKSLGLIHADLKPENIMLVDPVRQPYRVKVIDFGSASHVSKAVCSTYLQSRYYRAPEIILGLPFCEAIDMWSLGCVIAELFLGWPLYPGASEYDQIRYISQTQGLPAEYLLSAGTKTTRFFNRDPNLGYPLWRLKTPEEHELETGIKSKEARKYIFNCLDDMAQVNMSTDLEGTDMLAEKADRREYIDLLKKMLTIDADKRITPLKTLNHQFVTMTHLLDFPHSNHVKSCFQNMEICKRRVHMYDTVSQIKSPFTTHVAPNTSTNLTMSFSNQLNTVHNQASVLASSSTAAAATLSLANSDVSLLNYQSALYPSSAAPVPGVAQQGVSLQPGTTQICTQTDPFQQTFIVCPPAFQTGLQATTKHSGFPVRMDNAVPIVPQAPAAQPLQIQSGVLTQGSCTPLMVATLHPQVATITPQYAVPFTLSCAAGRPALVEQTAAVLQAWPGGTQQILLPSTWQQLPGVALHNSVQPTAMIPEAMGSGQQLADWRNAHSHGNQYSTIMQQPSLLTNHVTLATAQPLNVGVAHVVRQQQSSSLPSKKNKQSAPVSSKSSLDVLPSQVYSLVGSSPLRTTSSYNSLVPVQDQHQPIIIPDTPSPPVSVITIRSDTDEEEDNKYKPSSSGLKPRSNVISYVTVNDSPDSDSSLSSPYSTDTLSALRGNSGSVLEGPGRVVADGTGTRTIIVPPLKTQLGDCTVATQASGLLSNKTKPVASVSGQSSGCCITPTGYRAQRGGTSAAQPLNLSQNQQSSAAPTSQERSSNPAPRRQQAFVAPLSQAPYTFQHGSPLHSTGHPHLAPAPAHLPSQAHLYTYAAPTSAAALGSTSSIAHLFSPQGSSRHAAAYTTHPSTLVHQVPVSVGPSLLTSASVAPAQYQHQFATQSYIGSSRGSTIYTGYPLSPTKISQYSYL
T7 sequence (Q6DT37 whole entry): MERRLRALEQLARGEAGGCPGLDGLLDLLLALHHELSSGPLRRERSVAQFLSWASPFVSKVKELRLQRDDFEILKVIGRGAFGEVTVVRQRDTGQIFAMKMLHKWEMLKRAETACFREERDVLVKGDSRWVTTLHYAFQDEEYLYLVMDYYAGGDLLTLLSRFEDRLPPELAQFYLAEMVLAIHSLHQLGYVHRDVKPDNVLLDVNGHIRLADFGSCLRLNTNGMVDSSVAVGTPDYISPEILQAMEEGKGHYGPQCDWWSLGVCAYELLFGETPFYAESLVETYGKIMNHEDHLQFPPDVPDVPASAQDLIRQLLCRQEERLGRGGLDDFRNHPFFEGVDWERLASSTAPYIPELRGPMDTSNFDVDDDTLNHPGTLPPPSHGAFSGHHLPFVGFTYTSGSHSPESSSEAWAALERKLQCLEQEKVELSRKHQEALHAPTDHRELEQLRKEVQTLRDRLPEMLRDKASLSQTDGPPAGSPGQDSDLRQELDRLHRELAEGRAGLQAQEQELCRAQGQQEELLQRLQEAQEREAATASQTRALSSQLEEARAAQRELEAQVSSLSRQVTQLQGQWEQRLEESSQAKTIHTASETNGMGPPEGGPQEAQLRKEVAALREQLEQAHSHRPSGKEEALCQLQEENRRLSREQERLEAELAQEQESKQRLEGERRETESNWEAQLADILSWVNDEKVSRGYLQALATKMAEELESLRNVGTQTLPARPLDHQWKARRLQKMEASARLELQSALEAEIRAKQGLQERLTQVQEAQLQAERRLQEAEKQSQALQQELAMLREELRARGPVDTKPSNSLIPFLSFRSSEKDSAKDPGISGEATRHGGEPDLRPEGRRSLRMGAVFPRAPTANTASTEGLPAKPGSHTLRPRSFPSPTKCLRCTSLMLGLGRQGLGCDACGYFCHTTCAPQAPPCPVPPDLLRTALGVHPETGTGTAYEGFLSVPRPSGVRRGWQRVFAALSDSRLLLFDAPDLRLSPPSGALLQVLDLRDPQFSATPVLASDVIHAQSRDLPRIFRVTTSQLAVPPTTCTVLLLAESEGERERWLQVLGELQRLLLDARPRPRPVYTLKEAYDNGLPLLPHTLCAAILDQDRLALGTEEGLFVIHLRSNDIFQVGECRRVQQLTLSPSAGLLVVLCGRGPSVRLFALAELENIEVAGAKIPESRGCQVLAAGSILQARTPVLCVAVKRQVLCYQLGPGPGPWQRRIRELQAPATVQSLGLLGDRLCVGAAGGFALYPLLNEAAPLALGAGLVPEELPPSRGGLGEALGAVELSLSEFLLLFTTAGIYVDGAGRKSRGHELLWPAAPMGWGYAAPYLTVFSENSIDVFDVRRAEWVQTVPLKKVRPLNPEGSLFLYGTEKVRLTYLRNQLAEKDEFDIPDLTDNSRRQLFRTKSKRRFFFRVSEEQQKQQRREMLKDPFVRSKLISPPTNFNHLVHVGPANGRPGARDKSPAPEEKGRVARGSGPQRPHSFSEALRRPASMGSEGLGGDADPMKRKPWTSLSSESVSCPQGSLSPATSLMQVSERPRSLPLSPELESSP
T4 sequence (P11362 22-822): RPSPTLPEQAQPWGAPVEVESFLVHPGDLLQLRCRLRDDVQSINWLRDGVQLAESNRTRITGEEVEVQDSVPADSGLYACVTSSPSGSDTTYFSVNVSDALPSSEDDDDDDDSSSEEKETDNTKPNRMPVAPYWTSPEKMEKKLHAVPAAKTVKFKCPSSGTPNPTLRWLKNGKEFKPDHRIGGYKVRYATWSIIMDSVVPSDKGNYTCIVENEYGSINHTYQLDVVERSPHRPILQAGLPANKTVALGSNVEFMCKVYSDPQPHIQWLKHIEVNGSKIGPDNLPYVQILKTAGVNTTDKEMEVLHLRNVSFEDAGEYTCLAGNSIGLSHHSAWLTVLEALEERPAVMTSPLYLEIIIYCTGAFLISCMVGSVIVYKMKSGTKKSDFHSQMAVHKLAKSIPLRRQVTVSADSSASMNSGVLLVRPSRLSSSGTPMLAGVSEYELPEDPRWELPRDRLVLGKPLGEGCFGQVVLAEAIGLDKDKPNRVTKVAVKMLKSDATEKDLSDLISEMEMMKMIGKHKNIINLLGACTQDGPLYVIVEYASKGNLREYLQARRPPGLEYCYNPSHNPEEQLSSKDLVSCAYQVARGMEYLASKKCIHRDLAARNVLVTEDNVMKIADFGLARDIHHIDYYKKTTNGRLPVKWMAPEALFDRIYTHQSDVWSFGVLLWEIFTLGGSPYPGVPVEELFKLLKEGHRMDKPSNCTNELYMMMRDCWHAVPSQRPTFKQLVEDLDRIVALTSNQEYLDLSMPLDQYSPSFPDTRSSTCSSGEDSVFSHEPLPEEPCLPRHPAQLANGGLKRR

With `CC1(Nc2nc(Nc3cnn([C@H]4CCN(C5COC5)C[C@@H]4F)c3Cl)nc3[nH]cc(C#N)c23)CC1` [Example 52, 2-((5-chloro-1-((3S,4S)-3-fluoro-1-(oxetane-3-yl)piperidine-4-yl)-1H-pyrazole-4-yl)amino)((1-methylcyclopropyl)amino)-7H-pyrrolo[2,3-d]pyrimidine-5-carbonitrile], the remaining binding at 1 µM in assay [1] was 100%; in [2] it was 41%; in assay [3], 23%; in assay [4] it was 42%; in [5], 100%; in assay [6] it was 100%. For the same compound, the remaining binding at 1 µM in assay [7] was 81%; in assay [8], 18%; in assay [9], 100%; in assay [10] it was 100%; in [11] it was 86%; in assay [12], 4.8%. Also, in assay [13], the remaining binding at 1 µM was found to be 31%.
Turning to `CCNc1nc(Nc2ccc(C(=O)N3CCC(N4CCOCC4)CC3)cc2OC)nc2[nH]cc(C(F)(F)F)c12` [Example 104, (4-((4-(ethylamino)-5-(trifluoromethyl)-7H-pyrrolo[2,3-d]pyrimidine-2-yl)amino)-3-methoxyphenyl)(4-morpholinopiperidine-1-yl)methanone], the remaining binding at 1 µM worked out at 94% in assay [1]; 89% in [2]; 22% in assay [3]; 100% in assay [4]; 100% in [5]; 100% in assay [6]. Moreover, the remaining binding at 1 µM worked out at 100% in assay [7]; 13% in assay [8]; 100% in assay [9]; 100% in assay [10]; 90% in [11]; 84% in assay [12]. This compound yielded a remaining binding at 1 µM in assay [13] of 100%.
Turning to `CNc1nc(Nc2ccc(C(=O)N3CCOCC3)cc2OC)nc2[nH]cc(C#N)c12` [Example 1, 2-((2-methoxy-4-(morpholine-4-carbonyl)phenyl)amino)-4-(methylamino)-7H-pyrrolo[2,3-d]pyrimidine-5-carbonitrile], the remaining binding at 1 µM in assay [1] turned out to be 97%; in assay [2] it was 96%; in [3], 56%; in [4], 97%; in assay [5] it was 93%; in assay [6], 100%. For the same compound, the remaining binding at 1 µM amounted to 90% in assay [7]; 61% in assay [8]; 93% in assay [9]; 77% in [10]; 64% in assay [11]; 85% in assay [12]. In assay [13], the remaining binding at 1 µM was 98%.
